Measurements reported in PubChem BioAssay AID1963976 (Molecular Pharmacology Branch, DTP, NCI, 2024).
Each block holds one compound with its values, some of them ahead of it.

Test system: 435261-313-R-J1-PDC tumor spheroid viability
Test: Anticancer human tumor 435261-313-R-J1-PDC patient-derived colon adenocarcinoma cell line growth inhibition [PI3K]
Conditions: spheroids with HUVEC and MSC; for IC50: curve of first compound; for viability, T/C: stronger effect = lower value
Source text: Combinatorial screen of targeted agents with the PI3K inhibitors inavolisib, alpelisib, duvelisib, and copanlisib in multi-cell type tumor spheroids
A high-throughput screen of multi-cell type tumor spheroids was designed to identify active combinations of targeted small molecules and PI3K pathway inhibitors. Complex spheroids include a stromal component modeled by human endothelial cells (HUVEC) and fibroblasts modeled by human mesenchymal stem cells (MSCs). The concentration ranges selected for each drug and investigational agent were based upon clinically achievable concentrations if the clinical Cmax of the agent was known.
Compounds. The drugs and investigational agents: inavolisib (NSC800729), alpelisib (NSC765974), duvelisib (NSC772469), copanlisib (NSC816437), ipatasertib (NSC767898), afuresertib (NSC778305), talazoparib (NSC767125), sapanisertib (NSC764658), selumetinib (NSC741078), tovorafenib (DAY101, NSC766906), vemurafenib (NSC761431), ravoxertinib (NSC781343), sotorasib (NSC818433), MRTX1133 (NSC 836407), abemaciclib (NSC 768073), palbociclib (NSC758247), venetoclax (NSC 766270), SY5609 (NSC837396), enzalutamide (NSC755605), and darolutamide (NSC825331), were obtained from the National Cancer Institute (NCI) Developmental Therapeutics Program Chemical Repository. The FDA-approved anticancer drug set is available from the NCI Developmental Therapeutics Program. […] The stock solutions were prepared in dimethyl sulfoxide (DMSO, Sigma-Aldrich, St. Louis, MO, cat. D2650) at 800-fold the tested concentration and stored at -70 degrees C prior to their use. All drugs and investigational agents were tested over a range starting from a high concentration at or near the clinical Cmax and decreasing in half-log increments. If the clinical Cmax for an agent had not been determined, the highest concentration tested was 10 microM.
Cell Culture. All cells were maintained in an incubator at 37 degrees C and 5% CO2 with 95% humidity. The PDC lines were cultured according to standard operating procedures established by the NCI PDMR (https://pdmr.cancer.gov/sops/default.htm). All PDCs were thawed and cultured in Matrigel-coated flasks prepared with a working solution of 1X Ham's F-12 nutrient mix, without supplementation (Invitrogen, Waltham, MA, cat. 11765054), 100 U/mL penicillin-streptomycin (Invitrogen, cat. 15140122), and 2.5% Matrigel (Corning Inc., Corning, NY, cat. 354248) for the first three passages. The 354836-022-R-J1-PDC, 475296-252-R-J1-PDC, and 997726-040-R-J2-PDC lines were cultured in 6A media, which includes advanced DMEM/F-12 (Thermo Fisher Scientific, cat. 12634028), 10 mM HEPES (Thermo Fisher Scientific, cat. 15630080), 1X GlutaMAX supplement (Thermo Fisher Scientific, cat. 35050061), 0.1 mg/mL primocin (InvivoGen, San Diego, CA, cat. ant-pm-2), 10% defined fetal bovine serum, heat inactivated (HyClone Laboratories Inc., Logan, UT, cat. SH30070.03HI), 50% L-WRN conditioned media (ATCC, cat. CRL-3276), 1.25 mM N-Acetyl-L-cysteine (Sigma-Aldrich, cat. A9165), 10 mM nicotinamide (Sigma-Aldrich, cat. N0636), 1X B-27 supplement (Thermo Fisher Scientific, cat. 17504044), 1X N-2 supplement (Thermo Fisher Scientific, cat. 17502048), and 10 microM Y-27632 dihydrochloride (Tocris Bioscience, Bristol, United Kingdom, cat. 1254). The 624824-186-R-J2-PDC line was cultured in 6C/Colon 1B media, which includes all 6A media components plus 50 ng/mL human EGF recombinant protein (Thermo Fisher Scientific, cat. PHG0311). […]

[1] = second compound 0.00316 µM, first compound 0.0316 µM
[2] = second compound 0.00316 µM, first compound 0.1 µM
[3] = second compound 0.01 µM, first compound 0.0316 µM
[4] = second compound 0.01 µM, first compound 0.1 µM
[5] = second compound 0.0316 µM, first compound 0.0316 µM
[6] = second compound 0.0316 µM, first compound 0.1 µM
[7] = second compound 0.1 µM, first compound 0.0316 µM
[8] = second compound 0.1 µM, first compound 0.1 µM
[9] = second compound 0.316 µM, first compound 0.0316 µM
[10] = second compound 0.316 µM, first compound 0.1 µM
[11] = second compound 1 µM, first compound 0.0316 µM
[12] = second compound 1 µM, first compound 0.1 µM

IC50 (second compound 0.00316 µM): > 100 nM | IC50 (second compound 0.01 µM): > 100 nM | IC50 (second compound 0.0316 µM): 69.5 nM | IC50 (second compound 0.1 µM): 0.458 nM | IC50 (second compound 0.316 µM): < 0.316 nM | IC50 (second compound 1 µM): < 0.316 nM
SMILES: CC(=O)c1c(C)c2cnc(Nc3ccc(N4CCNCC4)cn3)nc2n(C2CCCC2)c1=O + CC(Nc1ccc2c(c1)OCCn1cc(N3C(=O)OCC3C(F)F)nc1-2)C(N)=O
viability, T/C (second compound 0.00316 µM, first compound 0.000316 µM): 78.8% | viability, T/C (second compound 0.00316 µM, first compound 0.001 µM): 91.4% | viability, T/C (second compound 0.00316 µM, first compound 0.00316 µM): 92.8% | viability, T/C (second compound 0.00316 µM, first compound 0.01 µM): 82.7% | viability, T/C [1]: 84.2% | viability, T/C [2]: 59.2% | viability, T/C (second compound 0.01 µM, first compound 0.000316 µM): 94.7% | viability, T/C (second compound 0.01 µM, first compound 0.001 µM): 83.6% | viability, T/C (second compound 0.01 µM, first compound 0.00316 µM): 100% | viability, T/C (second compound 0.01 µM, first compound 0.01 µM): 91.7% | viability, T/C [3]: 87.5% | viability, T/C [4]: 68.6% | viability, T/C (second compound 0.0316 µM, first compound 0.000316 µM): 64.2% | viability, T/C (second compound 0.0316 µM, first compound 0.001 µM): 66.7% | viability, T/C (second compound 0.0316 µM, first compound 0.00316 µM): 76.9% | viability, T/C (second compound 0.0316 µM, first compound 0.01 µM): 86.2% | viability, T/C [5]: 69.1% | viability, T/C [6]: 40.4% | viability, T/C (second compound 0.1 µM, first compound 0.000316 µM): 49.2% | viability, T/C (second compound 0.1 µM, first compound 0.001 µM): 52.7% | viability, T/C (second compound 0.1 µM, first compound 0.00316 µM): 38.8% | viability, T/C (second compound 0.1 µM, first compound 0.01 µM): 32.5% | viability, T/C [7]: 33.6% | viability, T/C [8]: 23.6% | viability, T/C (second compound 0.316 µM, first compound 0.000316 µM): 21.7% | viability, T/C (second compound 0.316 µM, first compound 0.001 µM): 22% | viability, T/C (second compound 0.316 µM, first compound 0.00316 µM): 19.3% | viability, T/C (second compound 0.316 µM, first compound 0.01 µM): 21.5% | viability, T/C [9]: 20.5% | viability, T/C [10]: 18.1% | viability, T/C (second compound 1 µM, first compound 0.000316 µM): 16.8% | viability, T/C (second compound 1 µM, first compound 0.001 µM): 17.1% | viability, T/C (second compound 1 µM, first compound 0.00316 µM): 17.7% | viability, T/C (second compound 1 µM, first compound 0.01 µM): 16.5% | viability, T/C [11]: 18.2% | viability, T/C [12]: 12.2%

IC50 (second compound 0.00316 µM): > 10000 nM | IC50 (second compound 0.01 µM): > 10000 nM | IC50 (second compound 0.0316 µM): > 10000 nM | IC50 (second compound 0.1 µM): < 31.6 nM | IC50 (second compound 0.316 µM): < 31.6 nM | IC50 (second compound 1 µM): < 31.6 nM
SMILES: CNC(=O)c1ccc(N2C(=S)N(c3ccc(C#N)c(C(F)(F)F)c3)C(=O)C2(C)C)cc1F + CC(Nc1ccc2c(c1)OCCn1cc(N3C(=O)OCC3C(F)F)nc1-2)C(N)=O
viability, T/C [1]: 73.1% | viability, T/C [2]: 95.5% | viability, T/C (second compound 0.00316 µM, first compound 0.316 µM): 74.7% | viability, T/C (second compound 0.00316 µM, first compound 1 µM): 101% | viability, T/C (second compound 0.00316 µM, first compound 3.16 µM): 106% | viability, T/C (second compound 0.00316 µM, first compound 10 µM): 93.2% | viability, T/C [3]: 81.7% | viability, T/C [4]: 92.6% | viability, T/C (second compound 0.01 µM, first compound 0.316 µM): 77.2% | viability, T/C (second compound 0.01 µM, first compound 1 µM): 96% | viability, T/C (second compound 0.01 µM, first compound 3.16 µM): 141% | viability, T/C (second compound 0.01 µM, first compound 10 µM): 123% | viability, T/C [5]: 69.8% | viability, T/C [6]: 77.3% | viability, T/C (second compound 0.0316 µM, first compound 0.316 µM): 57.7% | viability, T/C (second compound 0.0316 µM, first compound 1 µM): 82.9% | viability, T/C (second compound 0.0316 µM, first compound 3.16 µM): 84.6% | viability, T/C (second compound 0.0316 µM, first compound 10 µM): 68.2% | viability, T/C [7]: 48.9% | viability, T/C [8]: 28.5% | viability, T/C (second compound 0.1 µM, first compound 0.316 µM): 44.9% | viability, T/C (second compound 0.1 µM, first compound 1 µM): 51.9% | viability, T/C (second compound 0.1 µM, first compound 3.16 µM): 36.8% | viability, T/C (second compound 0.1 µM, first compound 10 µM): 29.6% | viability, T/C [9]: 22.3% | viability, T/C [10]: 19.2% | viability, T/C (second compound 0.316 µM, first compound 0.316 µM): 15.5% | viability, T/C (second compound 0.316 µM, first compound 1 µM): 24.6% | viability, T/C (second compound 0.316 µM, first compound 3.16 µM): 24% | viability, T/C (second compound 0.316 µM, first compound 10 µM): 17.5% | viability, T/C [11]: 15.5% | viability, T/C [12]: 15.6% | viability, T/C (second compound 1 µM, first compound 0.316 µM): 15.3% | viability, T/C (second compound 1 µM, first compound 1 µM): 15.2% | viability, T/C (second compound 1 µM, first compound 3.16 µM): 18.8% | viability, T/C (second compound 1 µM, first compound 10 µM): 12.8%
